In brackets after ≈: the same amount, converted by molar mass.
Legend:
[1] = assay type: physicochemical
Source text: The purity profile of the isolated Compound 9 was better when performing the crystallization from water (Batch 2602 and Batch 2603; both had purities over 99.5%) compared to both crystallization from water/MTBE mixture (purity of 98.5%) and pure MTBE (Batch 2601; purity was 98.5%). The major improvement is removal of early eluting/polar impurities. The yield of the present method may be slightly lower because there will be a small loss of material in the mother liquor. Estimated solubility of Compound 9 in the mother liquor at 5-20° C. is 0.8-0.9% (Batch 2602 and Batch 2603). In the current method this would correspond to 4-5% of the material being lost. This is considered an acceptable loss because of the improved purity of Compound 9.

[2] = cited from earlier work

CCCN1CCC(O)(c2cccc(SC)c2)CC1 [Compound 9, 4-(3-(methylthio)phenyl)-1-propylpiperidin-4-ol]
Estimated solubility in the mother liquor [1]: 0.8-0.9%

CSc1ccccc1 [TA, thioanisole]
solubility (water) [2]: 500 µg/mL (≈ 4.03 mM)

CCCCCCBr [hexyl bromide]
solubility in water [2]: insoluble in water

— patent US10047049B2, “Process for preparing pridopidine” (priority 2015, dated 2018)
